Measured values published in ChEMBL document CHEMBL3612063, “Multistage virtual screening and identification of novel HIV-1 protease inhibitors by integrating SVM, shape, pharmacophore and docking methods” (Eur J Med Chem, 2015).
Calls of active or inactive are those of the source. The rule behind the calls is not given here. Square brackets hold non-standard residues; d marks the D form. Peptide text beside a SMILES is read from it. * marks the point of attachment. Hyp = O=C(O)[C@@H]1C[C@@H](O)CN1; ONp = O=[N+]([O-])c1ccc(O*)cc1; Cbz = O=C(OCc1ccccc1)*; Boc = CC(C)(C)OC(=O)*; OBn = c1ccc(CO*)cc1

Experiments:
[1] = target: Protease (Human immunodeficiency virus 1) (UniProt Q9YQ12); experiment: Inhibition of recombinant HIV1 protease at 1 mM using FRET substrate peptide by FRET assay
Protease (Human immunodeficiency virus 1), sequence (Q9YQ12 as listed by the source): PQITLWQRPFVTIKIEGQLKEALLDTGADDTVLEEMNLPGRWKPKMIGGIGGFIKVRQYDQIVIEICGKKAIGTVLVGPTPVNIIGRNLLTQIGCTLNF

[2] = target: Protease (Human immunodeficiency virus 1, UniProt Q9YQ12); experiment: Inhibition of recombinant HIV1 protease using FRET substrate peptide by FRET assay
Protease, sequence (Q9YQ12 whole entry): as the sequence (Q9YQ12 as listed by the source) above

[3] = target: Protease (Human immunodeficiency virus 1) (UniProt Q9YQ12); experiment: Inhibition of recombinant HIV1 protease at 2 uM using FRET substrate peptide by FRET assay

| inhibition [1] | IC50 [2] | Compound | inhibition [3] |
| --- | --- | --- | --- |
| inactive | – | CC(C)[C@H](NC(=O)[C@H](Cc1ccccc1)NC(=O)OC(C)(C)C)C(=O)NCC(=O)OCc1ccccc1 (Boc-Phe-Val-Gly-OBn) | – |
| Active | 162 µM | COC(=O)[C@H](Cc1ccc(O)cc1)NC(=O)[C@H](CC(C)C)NC(=O)[C@H](CO)NC(=O)OCc1ccccc1 (Cbz-Ser-Leu-Tyr-OMe) | – |
| inactive | – | O=C(CNC(=O)[C@@H]1CCCN1C(=O)[C@@H]1C[C@@H](O)CN1C(=O)OCc1ccccc1)Oc1ccc([N+](=O)[O-])cc1 (Cbz-[Hyp]-Pro-Gly-ONp) | – |

The remaining lines, values behind:

| Compound | inhibition [1] | IC50 [2] | inhibition [3] |
| --- | --- | --- | --- |
| CC(C)C[C@@H](NC(=O)[C@H](CSCc1ccccc1)NC(=O)OCc1ccccc1)C(=O)OCc1ccccc1 | inactive | – | – |
| COC(=O)[C@H](CC(C)C)NC(=O)[C@H](Cc1ccccc1)NC(=O)[C@H](CO)NC(=O)OCc1ccccc1 (Cbz-Ser-Phe-Leu-OMe) | Active | 62 µM | – |
| C[C@@H](NC(=O)[C@H](Cc1ccccc1)NC(=O)[C@H](Cc1ccccc1)NC(=O)OC(C)(C)C)C(=O)OCc1ccccc1 | inactive | – | – |
| CC(C)CC(=O)N[C@H](C(=O)N[C@H](C(=O)N[C@@H](CC(C)C)[C@@H](O)CC(=O)N[C@@H](C)C(=O)N[C@@H](CC(C)C)[C@@H](O)CC(=O)O)C(C)C)C(C)C | – | – | Active |
